# Tests used:
# [1] = test system: mouse spleen cells (T-lymphocyte response to Con-A); experiment: Concanavalin A assay (mouse spleen cell mitogen induced blastogenesis); format: cell-based; details: estimated IC50, Con-A 1.25 μg/ml, 3 days, MTT
# Excerpt: iii Concanavalin A assay (the mouse spleen cell mitogen induced blastogenesis).
# (§1) The MLR assay measures the effects of a study compound on the activation and antigen presentation of T-lymphocytes, therefore determining immunomodulatory properties. The mouse spleen cell mitogen-induced blastogenesis and the BUD-8 human fibroblast proliferation assays measure the effects of the compounds of the present invention on cellular proliferation of cells involved in the pathogenesis of autoimmune diseases. These two assays are appropriate as screens to ascertain anti-inflammatory and/or autoimmune beneficial activity and are art accepted for such purposes.
# It is known that the induction and maintenance of most inflammatory diseases are typically due to the unrestricted activity of T-lymphocytes. Therefore, it is advantageous to identify compounds which are modulators of T-lymphocyte activity for eventual use in the regulation of inflammatory diseases, including acquired immune deficiency syndrome, psoriasis, systemic lupus, erythromatosus, and rheumatoid arthritis.
# A simple method is used to screen compounds for their ability to modulate T-lymphocyte activity which comprises assessing the capacity of the compounds to alter the activation of murine spleen cells in response to T-lymphocyte mitogen activators, such as Conconavalin-A (Con-A). The method used to measure the effects of the compounds of the present invention on the blastogenic response of spleen cells to the T-lymphocyte mitogen (Con-A) is as follows:
# The response of a mouse spleen cells to the T cell mitogen Con-A is a classical assay. In this assay, mice were euthanized by cervical dislocation and their spleens removed surgically. A single cell suspension of the spleens was prepared in culture medium (RPMI-1640 with hepes, supplemented with 10% calf serum, 2 mM glutamine, 500 units penicillin/streptomycin, and 4×10^-5 M 2-mercaptoethanol) using a Teflon pestle. The cells were centrifuged at 1500 RPM and the pellets resuspended in ACT (0.15M Tris, 0.14M Ammonium chloride, pH 7.2) in orde to lyse the red blood cells. After a five minutes incubation in a 37° C. waterbath, the cells were washed and resuspended in culture medium. The splenic lymphocytes were counted using an electronic Coulter Counter and diluted to 5.0×10^6 cells/ml.
# The test articles were diluted in culture medium to the appropriate concentrations. 100 μl aliquots were distributed to triplicate wells in a 96-well microtiter plate. 50 μl of lymphocytes (2.5×10^5 cells) were added to each well. Control wells with vehicle and wells with media were also run. Plates were incubated for one hour at 37° C. 50 μl of Con-A ([…]) were then added to the wells to result in a final concentration of 1.25 μg/ml. After incubation at 37° C. with 5% carbon dioxide for 3 days, proliferation was measured by adding 20 μl of MTT (10 mg/mlin PBS) [3-(4,5-dimethyl-thiazol-2-yl)-2,5-diphenyl tetrazolium bromide] to each well. Plates were incubated for 4 hours at 37° C., after which 180 μl of 10% SDS in PBS were added. After an overnight incubation, the optical density (OD) of each well was read using a Molecular Devices microplate reader at 570-650 nm.
# (§2) Duplicate cultures without Con-A were also set up. After 3 days of incubation, supernatants were assayed for lactate dehydrogenase activity to determine the viability of the cells, which is an indication of the toxicity of the test article on the splenic lymphocytes. 0.1 ml of supernatant was mixed with 0.1 ml of the LDH substrate mixture which contains 5.4×10^-2 M L(+) lactate, 6.6×10^-4 M 2-p-iodophenyl-3-p-nitrophenyl tetrazolium chloride, 2.8×10^-4 M phenazine methosulfate, 1.3×10^-3 M NAD, and 0.2M Tris buffer, pH 8.2. Plates were read immediately for 5 minutes at 490 nm using a Molecular Devices microplate reader.
# The mean for each test article treated group was determined and compared to the mean of the control group. […]
# [2] = test system: BUD-8 human skin fibroblast cells; experiment: BUD-8 human cell line fibroblast proliferation assay; format: cell-based; details: estimated IC50, BUD-8 cells, 3 days, MTT
# Excerpt: ii BUD-8 human cell line fibroblast proliferation assay.
# as §1
# The skin cell fibroblast line, BUD-8, was originally derived from the normal skin of a person and can now be obtained from the American Type Culture Collection, Rockville, Md. The concentration of the compounds which were used in this assay were: 1, 10, 30, 100, and 300 μM. The vehicle was used as the negative control. Test compounds were prepared in DMSO at a stock concentration of 300 mM. Appropriate dilutions were made in culture medium.
# In this assay BUD-8 cells were collected, counted, and diluted to 2×10^4 cells/ml. 0.1 ml was plated per well to give 2×10^3 cells/well. The compounds of the present invention were diluted in culture medium to the appropriate concentrations. Aliquates of 100 μl were distributed to triplicate wells. Control wells with vehicle and wells with media were also run. After a three day incubation at 37° C. with 5% carbon dioxide, proliferation was measured by adding 20 μl of MTT (10 mg/ml in PBS) (3-[4,5-dimethyl thiazol-2-yl]-2,5-diphenyl-tetrazolium bromide) to each well. Plates were incubated for 4 hours at 37° C., after which 180 μl of 10% SDS in PBS were added. After an overnight incubation, the optical density (OD) of each well was read using a Molecular Devices microplate reader at 570-650 nm.
# as §2, with “cultures” for “cultures without Con-A”, “set up to measure viability.” for “set up.”, “dehydrogenase (LDH)” for “dehydrogenase”, “the BUD-8 cells.” for “the splenic lymphocytes.”, “of supernatent” for “of supernatant”, “Tris buffer.” for “Tris buffer,”
# The mean for each test article treated group was determined and compared to the mean of the control group. The percent change from the control was calculated, and the IC50 estimated. The criteria used to establish activity levels were:
# Sixteen (16) test articles were assayed for their ability to inhibit fibroblast proliferation. The test article were added to BUD-8 cell cultures to give final concentrations of 1, 10, 30, 100, and 300 μM. The proliferation observed in the test article treated wells were compared to the DMSO control wells.
# [3] = Mus musculus, T-lymphocyte, 72 h
# [4] = Homo sapiens, Skin fibroblast, 72 h
Compound,"IC50 [1, 3] [µM]","IC50 [2, 4] [µM]",IC50 [1] [µM],IC50 [2] [µM]
"CCCCCCCCCOCCCO[C@H]1O[C@H]([C@H](O)CN2CCCCC2)[C@@H]2OC(C)(C)O[C@H]12 [Compound 4, n-Nonyloxypropyl 2,3-O-(1-methylethylidene)-6-deoxy-6-piperidinyl-α-D-mannofuranoside]",2.7,35,–,–
"C[C@@H](OCCCN(C)C)[C@H]1O[C@H](OCCCc2ccccc2)[C@H]2OC(C)(C)O[C@H]21 [Compound 26, Phenylpropyl 6-deoxy 2,3-O-(1-methylethylidene)-5-O-3'-(N'N'-dimethylamino-n-propyl)-α-D-mannofuranoside]",18,65,–,–
"CCCCCCCCCOCCCO[C@H]1O[C@H]([C@H](O)CN2CCOCC2)[C@@H]2OC(C)(C)O[C@H]12 [Compound 5, n-Nonyloxypropyl 2,3-O-(1-methylethylidene)-6-deoxy-6-morpholinyl-α-D-mannofuranoside]",17,> 200,–,–
"n-Nonyloxypropyl 2,3-O-(1-methylethylidene)-6-deoxy-6-aminothylpyrrolidinyl-α-D-mannofuranoside [Compound 7]",–,–,2.9,105
"C[C@@H](OCCN1CCCC1)[C@H]1O[C@H](OCCCc2ccccc2)[C@H]2OC(C)(C)O[C@H]21 [Compound 27, Phenylpropyl 6-deoxy 2,3-O-(1-methylethylidene)-5-O-(N'-ethylpyrrolidinyl)-α-D-mannofuranoside]",< 3,148,–,–
"CCCCCCCNC[C@@H](O)[C@H]1O[C@H](OCCCc2ccccc2)[C@H]2OC(C)(C)O[C@H]21 [Compound 21, Phenylpropyl 6-deoxy 2,3-O-(1-methylethylidene)-6-heptylamino-α-D-mannofuranoside]",7,19,–,–
"CCCCCCCCCOCCCO[C@H]1O[C@H]([C@@H](C)OCCCN(C)C)[C@@H]2OC(C)(C)O[C@H]12 [Compound 10, n-Nonyloxypropyl 2,3-O-(1-methylethylidene)-6-deoxy-5-O-(N,N-dimethylaminopropyl)-α-D-mannofuranoside]",3,17,–,–
"CCCCCCCCCOCCCO[C@H]1O[C@H]([C@H](O)CNCCCCCCC)[C@@H]2OC(C)(C)O[C@H]12 [Compound 8, n-Nonyloxypropyl 2,3-(1-methylethylidene)-6-deoxy-6-aminoheptyl-α-D-mannofuranoside]",17,16,–,–
"CCCCCCCCCOCCCO[C@H]1O[C@H]([C@H](C)N2CCCC2)[C@@H]2OC(C)(C)O[C@H]12 [Compound 15, n-Nonyloxypropyl 5,6-dideoxy-2,3-O-(1-methylethylidene)-5-pyrrolidinyl-β-L-gulofuranoside]",2.8,170,–,–
"CC1(C)O[C@@H]2[C@H](O1)[C@@H](OCCCCN1CCCC1)O[C@@H]2[C@H](O)CO [Compound 29, 4'-(1-Pyrrolidinyl)butyl 2,3-O-(1-methylethylidene)-α-D-mannofuranoside]",49,190,–,–
"CCCCCCCCCOCCCO[C@H]1O[C@H]([C@H](O)CN2CCCCCC2)[C@@H]2OC(C)(C)O[C@H]12 [Compound 6, n-Nonyloxypropyl 2,3-O-(1-methylethylidene)-6-deoxy-6-hexamethyleneimino-α-D-mannofuranoside]",3.2,38,–,–
"C[C@@H]([C@H]1O[C@H](OCCCc2ccccc2)[C@H]2OC(C)(C)O[C@H]21)N1CCCC1 [Compound 24, Phenylpropyl 5,6-dideoxy 2,3-O-(1-methylethylidene)-5-pyrrolidinyl-β-L-gulofuranoside]",28,225,–,–
"CCCCCCCCCOCCCO[C@H]1O[C@H]([C@@H](C)OCCN2CCCC2)[C@@H]2OC(C)(C)O[C@H]12 [Compound 12, n-Nonyloxypropyl 2,3-O-(1-methylethylidene)-6-deoxy-5-O-(N'-ethylpyrrolidinyl)-α-D-mannofuranoside]",3.2,42,–,–
"CC1(C)O[C@@H]2[C@H](O1)[C@@H](OCCCc1ccccc1)O[C@@H]2[C@H](O)CN1CCCC1 [Compound 20, Phenylpropyl 6-deoxy 2,3-O-(1-methylethylidene)-6-pyrrolidinyl-α-D-mannofuranoside]",59,> 300,–,–
"CC1(C)O[C@@H]2[C@H](O1)[C@@H](OCCCc1ccccc1)O[C@@H]2[C@H](O)CNCCCN1CCCC1 [Compound 22, Phenylpropyl 6-deoxy 2,3-O-(1-methylethylidene)-6-aminopropylpyrrolidinyl-α-D-mannofuranoside]",2.5,16,–,–
"CCCCCCCCCOCCCO[C@H]1O[C@H]([C@H](O)CN2CCCC2)[C@@H]2OC(C)(C)O[C@H]12 [Compound 3, n-Nonyloxypropyl 2,3-O-(1-methylethylidene)-6-deoxy-pyrrolidinyl-α-D-mannofuranoside]",3.3,18,–,–
